Patent US11786503B2, “Pharmaceutical compositions and methods for countering chemotherapy induced cardiotoxicity” (Auransa Inc., priority 2016, dated 2023)
Where two headings read alike, the source gives them in different places.

Key:
[1] = target: T1, TOPOIIα (Homo sapiens, UniProt P11388); experiment: kDNA decatenation assay, TOPOIIα; format: biochemical;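 further: kDNA incubated with one unit of TOPOIIα at 37 °C for 30 min, decatenated product resolved on 1% agarose gel, inhibition from relative band intensity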
T1 construct: purchased Inspiralis

[2] = test system: cardiomyocytes; experiment: cytotoxicity of myricetin analogs to cardiomyocytes (Table 1, Toxicity)
[3] = target: T2, TOPOIIβ (Homo sapiens, UniProt Q02880); experiment: kDNA decatenation assay, TOPOIIβ; format: biochemical;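 further: kinetoplast DNA incubated with one unit of TOPOIIβ at 37 °C for 30 min, decatenated product resolved on 1% agarose gel, inhibition scored from relative band intensity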
T2 construct: purchased Inspiralis

[4] = test system: A549 cells; experiment: doxorubicin-mediated death of lung cancer cells, CellTiter-Glo (Example 22); format: cell-based; conditions: co-treated with increasing concentrations of doxorubicin, 72 hours
Method: A549 cells (lung cancer) were cultured for 1 day before performing experiments. […] XLFit was used for curve fitting.

[5] = test system: cardiomyocytes differentiated from induced pluripotent stem cells; experiment: long term toxicity on electrophysiology, active electrodes (Example 24); format: cell-based; conditions: various concentrations, at least 5 days
Method: Samples were either mock-treated with 0.1% DMSO, or treated with various concentrations of the indicated drug. Following treatment, the percentage of active electrodes in each sample was measured for at least 5 days. Percentage of active electrodes was quantified and graphed in a time course.

[6] = test system: MDA-MB-231 cells; conditions: co-treated with increasing concentrations of doxorubicin, 72 hours
[7] = test system: cardiomyocytes differentiated from induced pluripotent stem cells; experiment: doxorubicin-induced mitochondrial toxicity, TMRM-negative cells, 48 hours (Example 17); format: cell-based, human; conditions: 1 μM doxorubicin, KAE 17 μM, AMB 0.76 μM, MES 10 μM, NAC 50 μM, Dex 160 μM, VIT 115 μM
Method: Following treatment, the samples were incubated with a tetramethylrhodamine methyl ester (TMRM) dye to indicate mitochondrial health, and a second dye to identify cell nuclei.

[8] = test system: Doxorubicin treated human iPSC-derived cardiomyocytes; experiment: iPSC-CM protection by myricetin analogs (Table 1); format: cell-based; conditions: for EC50 / Emax: Homo sapiens; for Emax: read-out: iPSC-CM protection Max Effect (%)
[9] = test system: Human iPSC-derived cardiomyocytes; experiment: cells; format: cell-based; conditions: Cardiomyocyte, 0.5 μM of Doxorubicin, 72 hours, read-out: EC50 for rescue from DOX-induced cell death
Method: To measure the rescue rates from the DOX-induced cell death in cardiomyocytes, the protective effect of myricetin was directly compared with that of dexraxozane (DEX; standard of care). Human iPSC-derived cardiomyocytes were treated with 0.5 μM of Doxorubicin and increasing concentrations of myricetin (MYR, circle) or dexraxozane (DEX, square). […] Cells were imaged using INCell Analyzer2200 (GE). […] (n=3).
Next, the ability of MYR to confer cardioprotection was directly compared with that of DHM as these two compounds display distinctive property in their structures and TOPOI inhibition activity. […] Human iPSC-derived cardiomyocytes were treated with 0.5 μM of Doxorubicin and increasing concentrations of myricetin (MYR, circle) or dihydromyricetin (DHM, triangle).

[10] = test system: Human stem cell derived cardiomyocytes; experiment: sunitinib-induced cell death (Example 14); format: cell-based; conditions: sunitinib (10 μM) plus MYR (1 to 100 μM), 72 hours
[11] = test system: TOPOIIβ mRNA expression; experiment: TOPOIIβ mRNA expression in cardiomyocytes; format: cell-based; conditions: for TOPOIIβ mRNA expression: compound alone, DOX at 24 and 48 hours
[12] = test system: Human iPSC-derived cardiomyocytes; experiment: DOX-induced sarcomere disruption, Cardiac Troponin T immunostaining (Example 8); format: cell-based; conditions: DOX (0.5 μM) plus MYR (100 μM), 72 hours
Method: DOX-induced cell death is often manifested by severity of structural disruptions of cardiomyocyte organization (e.g., sarcomere). To assess the protective effect of MYR against DOX-induced sarcomere disruption, human iPSC-derived cardiomyocytes were treated with DMSO, DOX (0.5 μM), or DOX plus MYR (100 μM). After 72 hours of treatment, cells were immunostained with antibody against Cardiac Troponin T (Abcam) to show sarcomeric organization in of the heart cells.

[13] = test system: Human iPSC-derived cardiomyocytes; experiment: contractility, beat rate by Pulse video, 3 days (Example 3); format: cell-based; conditions: 72 hours; for beat rate: mock-treated 33.33
[14] = test system: TOPOIIα expression; experiment: TOPOIIα mRNA expression in cardiomyocytes; format: cell-based
[15] = test system: Human iPSC-derived cardiomyocytes; experiment: doxorubicin-induced mitochondrial toxicity, TMRM signal, 2 days (Example 2); format: cell-based; conditions: co-treated with 1.25 μM doxorubicin and 79 μM myricetin, compared to 1.25 μM doxorubicin alone
Method: Following treatment, the samples were incubated with a tetramethylrhodamine methyl ester (TMRM) dye to indicate mitochondrial health, and Hoechst 33342 to identify cell nuclei. Cells were imaged using the INCell Analyzer2200.

[16] = test system: human induced pluripotent stem cell-derived cardiomyocytes (iPSC-CM)
[17] = test system: Human iPSC-derived cardiomyocytes; experiment: DOX-induced contractility dysfunction, Pulse video, 48 hours (Example 7); format: cell-based
[18] = test system: cardiomyocytes; experiment: bortezomib-induced cardiotoxicity (Example 14); format: cell-based, human; conditions: 100 μM myricetin
[19] = test system: Cardiomyocytes (human iPSC-derived); experiment: doxorubicin-induced apoptosis, CellEvent dye, 3 days (Example 4); format: cell-based; conditions: Cardiomyocyte, 72 h, co-treated with 1 μM of doxorubicin, read-out: IC50 for protective effects against apoptosis
Method: Cardiomyocytes were prepared as described above. […] Following treatment, the samples were incubated with a CellEvent dye to indicate apoptosis-positive cells, and a second dye to identify cell nuclei.

[20] = test system: Human iPSC-derived cardiomyocytes; experiment: DOX-induced DNA double strand break, γH2AX immunostaining; format: cell-based; conditions: 48 hours
[21] = test system: sorafenib treated cardiomyocytes; experiment: sorafenib-induced contractile dysfunction (Example 14); format: cell-based, human; conditions: 5 μM sorafenib treated cardiomyocytes
[22] = test system: C57BL/16 mice; experiment: acute anthracycline-induced cardiotoxicity model, echocardiography (Example 16); format: in vivo
Excerpt: An acute anthracycline-induced cardiotoxicity model was established in 9-10 week old C57BL/16 mice obtained from The Jackson Laboratory. […] General health of the animals was monitored on a daily basis throughout the course of the study. […] Left ventricular (LV) M-mode images were obtained in the two-dimensional short axis view close to the papillary muscles. Tracings of endocardial tissue during systole and diastole were made off line.

[23] = test system: cardiomyocytes differentiated from induced pluripotent stem cells; experiment: electrophysiological activity with doxorubicin, active electrodes (Example 20); format: cell-based, human; conditions: for average number of active electrodes: 30 hours
Method: Samples were either mock-treated with 0.1% DMSO, treated with 1 μM doxorubicin, or co-treated with 1 μM doxorubicin and various concentrations of vitexin (e.g., 11.6 μM, 37 μM, or 116 μM). Following treatment, the percentage of active electrodes in each sample was measured for 72 hours. Percentage of active electrodes was quantified and graphed in a time course (FIG. 28A). The average number of active electrodes per well was quantified and graphed at 30 hours after the treatment (FIG. 28B, n=6, standard deviation is shown as error bars).

[24] = test system: cardiomyocytes differentiated from induced pluripotent stem cells; experiment: long-term mitochondrial health, TMRM, 7 days (Example 19); format: cell-based, human
[25] = test system: MDA-MB-231 cells; experiment: cells; conditions: Homo sapiens, MDA-MB-231, 72 h, read-out: cell viability LC50 of doxorubicin
[26] = test system: cardiomyocytes differentiated from induced pluripotent stem cells; experiment: doxorubicin-induced apoptosis, TUNEL dye, 48 hours (Example 18); format: cell-based, human; conditions: 1 μM doxorubicin, VIT 115 μM, Dex 160 μM, AMB 0.76 μM, NAC 50 μM, KAE 17 μM, MES 10 μM
Method: Following treatment, the samples were incubated with a TUNEL dye to indicate apoptosis-positive cells, and a second dye to identify cell nuclei.

[27] = test system: cardiomyocytes differentiated from induced pluripotent stem cells; experiment: acute toxicity on electrophysiology, MEA beat period and field potential duration (Example 23); format: cell-based; conditions: lower drug concentration, at least 20 minutes
Method: Samples were either mock-treated with 0.1% DMSO, or treated with increasing concentrations of the indicated drug for at least 20 minutes. Cardiomyocytes were treated with the hERG potassium channel blocker E4031 as a control. Following treatment, the beat period and field potential duration (FPD) were measured in each sample using the MEA.

[28] = iPSC-CM, read-out: iPSC-CM protection EC50
[29] = MYR 40 mg/kg i.p. 30 minutes prior to doxorubicin 20 mg/kg, day 5
[30] = MYR 40 mg/kg i.p., 2-fold higher than doxorubicin
[31] = Doxorubicin 20 mg/kg single intraperitoneal injection, day 5 vs baseline

T2 sequence (Q02880 whole entry): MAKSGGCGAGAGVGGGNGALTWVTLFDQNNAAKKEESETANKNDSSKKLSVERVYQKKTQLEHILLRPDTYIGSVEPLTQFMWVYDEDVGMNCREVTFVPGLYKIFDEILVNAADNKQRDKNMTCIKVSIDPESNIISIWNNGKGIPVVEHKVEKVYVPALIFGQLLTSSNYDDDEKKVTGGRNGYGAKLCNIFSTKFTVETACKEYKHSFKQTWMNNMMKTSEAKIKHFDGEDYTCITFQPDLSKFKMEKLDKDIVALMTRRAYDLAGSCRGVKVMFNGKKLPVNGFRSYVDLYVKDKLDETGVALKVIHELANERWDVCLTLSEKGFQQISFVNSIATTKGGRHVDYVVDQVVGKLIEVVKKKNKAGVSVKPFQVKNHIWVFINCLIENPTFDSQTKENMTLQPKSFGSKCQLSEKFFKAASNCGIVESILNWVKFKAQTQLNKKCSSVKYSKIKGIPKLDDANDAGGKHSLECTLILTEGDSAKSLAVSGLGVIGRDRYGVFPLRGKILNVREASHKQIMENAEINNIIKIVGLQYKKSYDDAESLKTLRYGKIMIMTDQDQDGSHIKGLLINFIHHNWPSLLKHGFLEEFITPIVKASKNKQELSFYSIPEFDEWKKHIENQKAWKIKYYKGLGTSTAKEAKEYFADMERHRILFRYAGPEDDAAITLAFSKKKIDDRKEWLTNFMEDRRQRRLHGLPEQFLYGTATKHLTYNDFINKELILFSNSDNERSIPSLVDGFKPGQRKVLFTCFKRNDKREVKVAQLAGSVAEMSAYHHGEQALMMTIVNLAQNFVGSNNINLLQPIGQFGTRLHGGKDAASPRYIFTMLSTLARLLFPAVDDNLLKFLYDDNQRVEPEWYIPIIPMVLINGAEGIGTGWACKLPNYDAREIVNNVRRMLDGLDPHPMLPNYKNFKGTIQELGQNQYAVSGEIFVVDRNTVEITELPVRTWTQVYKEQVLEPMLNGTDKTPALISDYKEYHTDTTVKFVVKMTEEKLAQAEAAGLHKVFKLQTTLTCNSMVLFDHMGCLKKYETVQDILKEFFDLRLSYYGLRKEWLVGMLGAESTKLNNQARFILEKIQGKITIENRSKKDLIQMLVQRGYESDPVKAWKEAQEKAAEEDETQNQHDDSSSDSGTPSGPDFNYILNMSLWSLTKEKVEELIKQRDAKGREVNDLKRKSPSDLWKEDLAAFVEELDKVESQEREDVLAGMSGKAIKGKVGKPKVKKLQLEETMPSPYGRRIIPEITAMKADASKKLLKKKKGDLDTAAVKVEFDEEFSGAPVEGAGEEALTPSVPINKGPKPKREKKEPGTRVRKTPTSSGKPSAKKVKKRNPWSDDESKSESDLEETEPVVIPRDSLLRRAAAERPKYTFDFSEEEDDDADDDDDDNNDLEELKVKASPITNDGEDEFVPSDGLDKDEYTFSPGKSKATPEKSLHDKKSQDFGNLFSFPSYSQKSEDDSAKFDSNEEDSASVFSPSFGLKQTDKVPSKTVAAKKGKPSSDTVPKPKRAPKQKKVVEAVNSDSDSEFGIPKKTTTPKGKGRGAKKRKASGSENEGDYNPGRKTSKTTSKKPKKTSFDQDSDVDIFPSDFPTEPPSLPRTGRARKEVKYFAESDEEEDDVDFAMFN
T1 sequence (P11388 whole entry): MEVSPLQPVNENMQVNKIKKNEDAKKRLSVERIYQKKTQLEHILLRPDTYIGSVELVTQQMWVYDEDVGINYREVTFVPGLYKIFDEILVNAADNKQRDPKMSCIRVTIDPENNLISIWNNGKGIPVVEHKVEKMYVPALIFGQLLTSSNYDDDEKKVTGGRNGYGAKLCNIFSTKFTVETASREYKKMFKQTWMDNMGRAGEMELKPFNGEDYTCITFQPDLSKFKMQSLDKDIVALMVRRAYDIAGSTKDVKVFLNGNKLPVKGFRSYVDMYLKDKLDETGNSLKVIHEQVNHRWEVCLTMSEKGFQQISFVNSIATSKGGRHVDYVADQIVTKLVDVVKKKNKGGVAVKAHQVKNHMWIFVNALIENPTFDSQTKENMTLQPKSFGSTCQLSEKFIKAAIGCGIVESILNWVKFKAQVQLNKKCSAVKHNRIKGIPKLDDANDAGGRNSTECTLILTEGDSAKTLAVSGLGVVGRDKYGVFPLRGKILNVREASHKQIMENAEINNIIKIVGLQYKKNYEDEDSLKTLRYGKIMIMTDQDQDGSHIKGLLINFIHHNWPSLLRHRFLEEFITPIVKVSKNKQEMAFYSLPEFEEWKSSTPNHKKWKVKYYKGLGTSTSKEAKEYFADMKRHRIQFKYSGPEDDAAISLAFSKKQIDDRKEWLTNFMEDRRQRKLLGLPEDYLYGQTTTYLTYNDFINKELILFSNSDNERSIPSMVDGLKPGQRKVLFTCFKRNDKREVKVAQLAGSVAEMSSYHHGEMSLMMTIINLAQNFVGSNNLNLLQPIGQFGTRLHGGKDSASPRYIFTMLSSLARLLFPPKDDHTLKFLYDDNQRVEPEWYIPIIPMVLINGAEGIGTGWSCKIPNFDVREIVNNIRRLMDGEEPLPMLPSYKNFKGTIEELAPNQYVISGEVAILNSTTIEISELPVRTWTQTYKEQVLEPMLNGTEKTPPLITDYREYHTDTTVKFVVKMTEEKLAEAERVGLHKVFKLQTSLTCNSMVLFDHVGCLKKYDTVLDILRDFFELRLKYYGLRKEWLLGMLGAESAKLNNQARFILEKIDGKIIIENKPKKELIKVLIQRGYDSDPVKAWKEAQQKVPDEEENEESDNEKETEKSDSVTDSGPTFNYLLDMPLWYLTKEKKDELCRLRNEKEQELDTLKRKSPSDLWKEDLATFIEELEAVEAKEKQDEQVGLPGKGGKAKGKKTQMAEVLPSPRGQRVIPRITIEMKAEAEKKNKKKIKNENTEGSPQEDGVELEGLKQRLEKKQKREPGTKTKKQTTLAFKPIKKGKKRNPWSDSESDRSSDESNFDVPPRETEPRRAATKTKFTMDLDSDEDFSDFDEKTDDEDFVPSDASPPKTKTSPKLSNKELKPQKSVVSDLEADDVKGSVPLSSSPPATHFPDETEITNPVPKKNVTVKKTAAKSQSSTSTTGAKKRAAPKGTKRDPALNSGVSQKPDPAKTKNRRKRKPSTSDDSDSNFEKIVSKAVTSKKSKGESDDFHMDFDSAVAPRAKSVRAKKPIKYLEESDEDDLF

O=c1c(O)c(-c2ccc(O)cc2)oc2cc(O)cc(O)c12 [Compound 7, 3,5,7,4′-tetrahydroxyflavone]
TOPIIα Inhibition [1]: − | TOPOIIα inhibition, in words ([1]; decatenation assay): did not exhibit any inhibitory effect | Toxicity ([2]; * = cytotoxicity at 100 μM): − | toxic effects at concentrations less than 100 μM ([2]; Table 1): did not show toxic effects | cytotoxicity, in words ([2]; at 100 μM where stated, Table 1): without some level of cytotoxicity | TOPIIβ Inhibition [3]: − | TOPOIIβ inhibition, in words ([3]; decatenation assay): did not exhibit any inhibitory effect | difference in the percentage of cell death vs doxorubicin without protective agent [4]: no significant difference | decrease in the number of active electrodes relative to the mock-treated sample [5]: no observable decrease | difference in the percentage of cell death vs doxorubicin without protective agent [6]: no significant difference | decrease in mitochondrial toxicity, compared to doxorubicin without protective agent [7]: at least 60% | maximum rescue rate [8]: < 50% | EC50 [8, 28]: 26 µM | Emax ([8]; iPSC-CM): 46% | cardioprotection, in words ([8]; Table 1): moderate level of cardioprotection

O=c1c(O)c(-c2cc(O)c(O)c(O)c2)oc2cc(O)cc(O)c12 [Compound 1, 3,5,7,3′,4′,5′-hexahydroxyflavone]
EC50 [9]: 7.5 µM | protection against sunitinib-induced cell death [10]: displayed protection | TOPOII expression (TOPOIIβ) in the presence of myricetin ([11]; DOX plus myricetin): restored to a level close to normal | TOPOIIβ mRNA expression [11]: did not have any effect | protection against DOX-induced sarcomere disruption [12]: significant protection | beat rate ([13]; 79 μM myricetin alone): 39.33 beats per minute | beat rate ([13]; co-treated with 79 μM myricetin and 1.25 μM doxorubicin): 37.33 beats per minute | expression of TOPOIIα ([14]; myricetin in the presence of DOX): further repressed | TMRM signal (mitochondrial health) [15]: greater TMRM signal | difference in the number of total cells, as compared to mock-treated control [16]: no significant difference | reduction the number of total cells, as compared to mock-treated control ([16]; co-treated with myricetin and 1.25 μM doxorubicin, 72 hours): 27.57% | correction of DOX-induced contractile dysfunction ([17]; DOX (0.5 μM) plus MYR (100 μM), as compared to DEX (100 μM)): significantly corrected | rescue of bortezomib-induced cardiotoxicity [18]: rescued | IC50 [19]: 20.5 µM | protection against DOX-induced double strand break (γH2AX-positive cells) ([20]; DOX (0.5 μM) plus 100 μM agent): significant protection | IC50 ([20]; Homo sapiens, Cardiomyocyte, read-out: IC50, concentration at which DOX-induced double strand break was reduced to 50%, 0.5 μM of doxorubicin): 5.28 µM | EC50 ([8]; Cardiomyocyte, approximate, read-out: EC50 for cardioprotection): 10 to 20 µM | EC50 [8, 28]: 14.5 µM | Emax ([8]; iPSC-CM): 78% | cardiac dysfunction corrected [21]: more than 80% | improvement of EF [22, 29]: 10% | improvement of FS [22, 29]: 7% | rescue of EF dysfunction caused by doxorubicin [22, 30]: 49% | rescue of FS dysfunction caused by doxorubicin [22, 30]: 52%

COc1cccc2c1C(=O)c1c(O)c3c(c(O)c1C2=O)C[C@@](O)(C(=O)CO)C[C@@H]3O[C@H]1C[C@H](N)[C@H](O)[C@H](C)O1 [doxorubicin, reference compound]
average number of active electrodes ([23]; 1 μM doxorubicin in the absence of vitexin): about 2 active electrodes | decrease in the number of active electrodes ([23]; 1 μM doxorubicin, in the absence of vitexin, 24 hours after drug treatment): ~50% | decrease in the number of active electrodes, relative to time zero ([23]; 1 μM doxorubicin, in the absence of vitexin, 30 hours after drug treatment): ~95% | TOPOIIβ mRNA expression [11]: significantly repressed | contraction ([13]; 1.25 μM doxorubicin, in the absence of myricetin): completely inhibited contraction | expression of TOPOIIα ([14]; DOX alone, over time): slowly repressed | reduction in the number of total cells, as compared to mock-treated control ([16]; human, 72 h, 1.25 μM): 62.6% | dysfunction in cardiomyocyte contraction ([17]; DOX (0.5 μM)): reduction in beating, duration, and peak height | mitochondrial toxicity (decrease in TMRM-positive cells) vs mock-treated ([24]; 1 μM of doxorubicin): increase in mitochondrial toxicity | CC50 [25]: 530 nM | decrease of ejection fraction (EF) [22, 31]: 19% | decrease of fractional shortening (FS) [22, 31]: 15%

O=c1cc(-c2ccc(O)cc2)oc2c([C@@H]3O[C@H](CO)[C@@H](O)[C@H](O)[C@H]3O)c(O)cc(O)c12 [vitexin]
decrease in the number of active electrodes ([23]; 1 μM doxorubicin and 11.6 μM vitexin, 24 hours): ~50% | decrease in the number of active electrodes ([23]; 1 μM doxorubicin and 37 μM vitexin, 24 hours): ~25% | decrease in the number of active electrodes ([23]; 1 μM doxorubicin and 116 μM vitexin, 24 hours): ~0% | average number of active electrodes ([23]; 1 μM doxorubicin and 116 μM vitexin): about 10 active electrodes | difference in the percentage of cell death vs doxorubicin without protective agent [4]: no significant difference | decrease in the number of active electrodes relative to the mock-treated sample [5]: no observable decrease | decrease in apoptosis, compared to doxorubicin without protective agent [26]: at least 60% | difference in the percentage of cell death vs doxorubicin without protective agent [6]: no significant difference | long term mitochondrial protection ([24]; doxorubicin and vitexin, compared to doxorubicin or doxorubicin and dexrazoxane): improved long term mitochondrial protection | difference in beat period or field potential duration vs control samples [27]: no appreciable difference
